{
  "source": "paper PMC8112869",
  "about": "“Therapeutic inhibition of keratinocyte TRPV3 sensory channel by local anesthetic dyclonine” (eLife, 2021)",
  "target": "T1, endogenous TRPV3 channels in mouse keratinocytes (Mus musculus, UniProt Q8K424)",
  "T1 construct": "endogenous in cells; host or cells: primary epidermal keratinocytes of newborn WT C57B/6 mice",
  "T1 sequence (Q8K424 1-791)": "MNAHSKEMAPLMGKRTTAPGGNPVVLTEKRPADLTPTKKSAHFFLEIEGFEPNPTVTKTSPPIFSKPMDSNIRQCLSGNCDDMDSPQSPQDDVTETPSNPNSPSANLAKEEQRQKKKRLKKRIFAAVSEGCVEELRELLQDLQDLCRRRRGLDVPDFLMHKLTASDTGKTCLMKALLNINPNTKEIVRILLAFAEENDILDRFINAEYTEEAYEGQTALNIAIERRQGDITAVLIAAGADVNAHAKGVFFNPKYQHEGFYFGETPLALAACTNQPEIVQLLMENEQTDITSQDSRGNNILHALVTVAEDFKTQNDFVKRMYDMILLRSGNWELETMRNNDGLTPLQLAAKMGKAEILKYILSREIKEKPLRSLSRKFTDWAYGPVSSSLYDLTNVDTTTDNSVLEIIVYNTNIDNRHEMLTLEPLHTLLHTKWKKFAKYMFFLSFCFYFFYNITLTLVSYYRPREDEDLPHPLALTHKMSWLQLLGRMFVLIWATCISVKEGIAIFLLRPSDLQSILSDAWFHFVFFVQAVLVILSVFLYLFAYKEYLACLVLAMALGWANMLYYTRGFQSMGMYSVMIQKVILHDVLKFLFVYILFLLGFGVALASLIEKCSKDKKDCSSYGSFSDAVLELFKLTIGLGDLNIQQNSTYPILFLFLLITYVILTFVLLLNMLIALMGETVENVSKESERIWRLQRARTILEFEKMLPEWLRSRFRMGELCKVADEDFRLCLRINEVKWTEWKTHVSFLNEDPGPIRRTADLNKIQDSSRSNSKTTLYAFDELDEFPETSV",
  "test": "Whole-cell recording of 2-APB-evoked TRPV3 currents in primary mouse epidermal keratinocytes",
  "type": "cell-based",
  "details": "for TRPV3 currents, of control level: 300 μM 2-APB, –60 mV",
  "experimental": "The animal protocol used in this study was approved by the Institutional Animal Care and Use Committee of Wuhan University. Primary mouse keratinocytes were prepared according to the method previously described ([Luo et al., 2012]; [Pirrone et al., 2005]). Briefly, newborn WT C57B/6 mice (postnatal days 1–3) were deeply anaesthetized and decapitated and then soaked in 10% povidone-iodine, 70% ethanol, and phosphate-buffered saline (PBS) for 5 min, respectively. The skin on the back was removed and rinsed with pre-cold sterile PBS in a 100 mm Petri dish and transferred into a 2 ml tube filled with pre-cold digestion buffer containing 4 mg/ml dispase II and incubated overnight at 4°C. After treatment with dispase II for 12–18 hr, the epidermis was gently peeled off from dermis and collected. Keratinocytes were dispersed by gentle scraping and flushing with KC growth medium (Invitrogen). The resulting suspension of single cells was collected by centrifuge, and cells were seeded onto coverslips pre-coated with poly-L-lysine and maintained in complete keratinocyte serum-free growth medium (Invitrogen). Cell culture medium was refreshed every two days. Patch-clamp recordings were carried out 48 hr after plating.\nConventional whole-cell and excised patch-clamp recording methods were used. For the recombinant expressing system, green fluorescent EGFP was used as a surface marker for gene expression. Recording pipettes were pulled from borosilicate glass capillaries (World Precision Instruments) and fire-polished to a resistance between 2 and 4 MΩ when filled with internal solution containing (in mM) 140 CsCl, 2.0 MgCl2, 5 EGTA, and 10 HEPES, pH 7.4 (adjusted with CsOH). Bath solution contained (in mM): 140 NaCl, 5 KCl, 3 EGTA, and 10 HEPES, pH 7.4 adjusted with NaOH. For recordings in keratinocytes, the bath saline consisted of (in mM) 140 NaCl, 5 KCl, 2 MgCl2, 2 CaCl2, 10 glucoses, and 10 HEPES, pH 7.4 adjusted with NaOH, and the pipette solution contained (in mM) 140 CsCl, 5 EGTA, and 10 HEPES, pH 7.3 adjusted with CsOH. For single-channel recordings, the pipette solution and bath solution were symmetrical and contained (in mM) 140 NaCl, 5 KCl, 3 EGTA, and 10 HEPES, pH 7.4. Isolated cells were voltage clamped and held at –60 mV using an EPC10 amplifier with the Patchmaster software (HEKAElectronics, Lambrecht, Germany). For a subset of recordings, currents were amplified using an Axopatch 200B amplifier (Molecular Devices, Sunnyvale, CA) and recorded through a BNC-2090/MIO acquisition system (National Instruments, Austin, TX) using QStudio developed by Dr. Feng Qin at State University of New York at Buffalo. […] As determined by the conductance tests, the solution around a patch under study was fully controlled by the application of a flow rate of 100 μl/min or greater. […]",
  "data": [
    {"compound": "CCCCOc1ccc(C(=O)CCN2CCCCC2)cc1", "note": "[dyclonine]", "values": [
      {"measurement": "TRPV3 currents, of control level", "setting": "5 μM dyclonine", "result": "52% ± 7%"},
      {"measurement": "TRPV3 currents, of control level", "setting": "30 μM dyclonine", "result": "13% ± 0.01%"},
      {"measurement": "IC50", "setting": "300 μM 2-APB-evoked, read-out: IC50 on TRPV3 currents in cultured keratinocytes", "result": "5.2 ± 0.71", "unit": "µM"},
      {"measurement": "Hill coefficient nH", "setting": "keratinocytes", "result": "2.4 ± 0.75"}
    ]}
  ]
}
